system: Lox-IMVI melanoma cell line; assay: Lox-IMVI anti-proliferative assay (growth inhibition, Cell Titer-Glo); assay type: cell-based, human; conditions: Homo sapiens; IC50 activity level in the cell-based Lox-IMVI anti-proliferative assay; read-out: Activity
Protocol: Determination of the Growth Inhibitory Effect of Aminopurine Compounds. The Lox-IMVI melanoma cell line (Source: NCI-DCTD, catalog No. 0507283) was maintained and tested in RPMI+10% FBS. The seeding density for the cell line was optimized to ensure assay linearity in 384-well plates.
Increasing concentrations of Aminopurine Compound (0.5 nM to 10 μM) were spotted in a 10-point serial dilution fashion (3-fold dilution) in duplicate within the plate via an acoustic dispenser (EDC ATS-100) into an empty 384-well plate. The dimethyl sulfoxide (DMSO) concentration was kept constant for a final assay concentration of 0.2% DMSO. Prior to testing, cells were grown and expanded in culture flasks to provide sufficient amounts of starting material. Cells were then diluted to their desired densities and added directly to the compound-spotted 384-well plates. Cells were allowed to grow for 72 hours in 5% CO2 at 37° C. At the time when exposure of cells to compound began (t0), initial cell number was assessed via a viability assay (Cell Titer-Glo) by quantifying the level of luminescence generated by adenosine-5′-triphosphate (ATP) present in viable cells. After 72 hours, cell viability of compound-treated cells was assessed via Cell Titer-Glo Luminescent Cell Viability Assay (Promega Corporation, Madison, Wis.) and read for luminescence.
All data was normalized and represented as a percentage of the DMSO-treated control cells after 72 h. Results were expressed as a IC50 value, which is the compound concentration required to inhibit 50% of the untreated control cells during the 72 hours of treatment.
A Four Parameter Logistic Model (Sigmoidal Dose-Response Model) was used to determine the compound's IC50. y=(A+((B−A)/(1+((C/x)^D))))
wherein: • A=YMin • B=YMax • C=EC50 • D=Hill Slope • IC50 is the compound concentration when Y=50% of DMSO control • Y=Luminescence unit
All inhibition curves were processed and evaluated using XLFit and Activity Base (IDBS).

| Compound | IC50 |
| --- | --- |
| C[C@@H]1CC[C@@H](Nc2ncc3nc(Nc4ccc(Cl)cc4Cl)n([C@H]4CC[C@@H](C(N)=O)CC4)c3n2)C[C@H]1O [Example 391, (1S,4s)-4-(8-(2,4-dichlorophenylamino)-2-((1R,3R,4R)-3-hydroxy-4-methylcyclohexylamino)-9H-purin-9-yl)cyclohexanecarboxamide] | > 1000 nM |
| NC(=O)[C@H]1CC[C@@H](n2c(Nc3ccc(Cl)c(F)c3F)nc3cnc(N[C@H]4CCC[C@@H](O)C4)nc32)CC1 [Example 375, (1R,4s)-4-(8-(4-chloro-2,3-difluorophenylamino)-2-((1S,3R)-3-hydroxycyclohexylamino)-9H-purin-9-yl)cyclohexanecarboxamide] | > 1000 nM |
| NC(=O)[C@H]1CC[C@@H](n2c(Nc3c(F)cc(Cl)cc3F)nc3cnc(N[C@@H]4COC[C@H]4O)nc32)CC1 [Example 316, (1S,4s)-4-(8-(4-chloro-2,6-difluorophenylamino)-2-((3R,4S)-4-hydroxytetrahydrofuran-3-ylamino)-9H-purin-9-yl)cyclohexanecarboxamide] | > 1000 nM |
| CC[C@@H](CO)Nc1ncc2nc(Nc3ccc(Cl)cc3Cl)n([C@H]3CC[C@@H](C(N)=O)CC3)c2n1 [Example 149, (1R,4s)-4-(8-(2,4-dichlorophenylamino)-2-((S)-1-hydroxybutan-2-ylamino)-9H-purin-9-yl)cyclohexanecarboxamide] | > 1000 nM |
| NC(=O)[C@H]1CC[C@@H](n2c(Nc3c(Cl)cc(Cl)cc3Cl)nc3cnc(N[C@H]4CC[C@H](O)C4)nc32)CC1 [Example 330, (1R,4s)-4-(2-((1S,3S)-3-hydroxycyclopentylamino)-8-(2,4,6-trichlorophenylamino)-9H-purin-9-yl)cyclohexanecarboxamide] | 500 to 1000 nM |
| C[C@@H](CO)Nc1ncc2nc(Nc3cccc(Cl)c3F)n([C@H]3CC[C@@H](C(N)=O)CC3)c2n1 [Example 172, (1R,4s)-4-(8-(3-chloro-2-fluorophenylamino)-2-((S)-1-hydroxypropan-2-ylamino)-9H-purin-9-yl)cyclohexanecarboxamide] | > 1000 nM |
| NC(=O)[C@H]1CC[C@@H](n2c(Nc3c(F)cc(F)cc3Cl)nc3cnc(N[C@@H]4CCCOC4)nc32)CC1 [Example 187, (1S,4s)-4-(8-(2-chloro-4,6-difluorophenylamino)-2-((R)-tetrahydro-2H-pyran-3-ylamino)-9H-purin-9-yl)cyclohexanecarboxamide] | > 1000 nM |
| NC(=O)[C@H]1CC[C@@H](n2c(Nc3c(Cl)cc(Cl)cc3Cl)nc3cnc(NC4CCS(=O)(=O)CC4)nc32)CC1 [Example 92, (1s,4s)-4-(2-((1,1-dioxidotetrahydro-2H-thiopyran-4-yl)amino)-8-((2,4,6-trichlorophenyl)amino)-9H-purin-9-yl)cyclohexane-1-carboxamide] | > 1000 nM |
| NC(=O)[C@H]1CC[C@@H](n2c(Nc3c(F)cc(Cl)cc3F)nc3cnc(NC4CC5(COC5)C4)nc32)CC1 [Example 176, (1s,4s)-4-(2-(2-oxaspiro[3.3]heptan-6-ylamino)-8-(4-chloro-2,6-difluorophenylamino)-9H-purin-9-yl)cyclohexanecarboxamide] | > 1000 nM |
| NC(=O)[C@H]1CC[C@@H](n2c(Nc3c(Cl)cc(F)cc3Cl)nc3cnc(N[C@H]4CCCOC4)nc32)CC1 [Example 202, (1R,4s)-4-(8-(2,6-dichloro-4-fluorophenylamino)-2-((S)-tetrahydro-2H-pyran-3-ylamino)-9H-purin-9-yl)cyclohexanecarboxamide] | > 1000 nM |
| Cc1cc(Cl)c(Nc2nc3cnc(NC4CCOCC4)nc3n2[C@H]2CC[C@@H](C(N)=O)CC2)c(Cl)c1 [Example 116, (1s,4s)-4-(8-(2,6-dichloro-4-methylphenylamino)-2-(tetrahydro-2H-pyran-4-ylamino)-9H-purin-9-yl)cyclohexanecarboxamide] | > 1000 nM |
| CC[C@H](C)Nc1ncc2nc(Nc3c(Cl)cccc3Cl)n([C@H]3CC[C@@H](C(N)=O)CC3)c2n1 [Example 336, (1R,4s)-4-(2-(sec-butylamino)-8-(2,6-dichlorophenylamino)-9H-purin-9-yl)cyclohexanecarboxamide] | > 1000 nM |
| NC(=O)[C@H]1CC[C@@H](n2c(Nc3cc(Cl)c(Cl)cc3Cl)nc3cnc(NC4CCOCC4)nc32)CC1 [Example 65, (1s,4s)-4-(2-(tetrahydro-2H-pyran-4-ylamino)-8-(2,4,5-trichlorophenylamino)-9H-purin-9-yl)cyclohexanecarboxamide] | > 1000 nM |

same assay, conditions: Homo sapiens; Lox-IMVI anti-proliferative assay, IC50 activity level; read-out: Activity

| Compound | IC50 |
| --- | --- |
| C[C@]1(O)CCC[C@@H](Nc2ncc3nc(Nc4c(F)cc(Cl)cc4Cl)n([C@H]4CC[C@@H](C(N)=O)CC4)c3n2)C1 [Example 427, (1S,4s)-4-(8-(2,4-dichloro-6-fluorophenylamino)-2-((1R,3S)-3-hydroxy-3-methylcyclohexylamino)-9H-purin-9-yl)cyclohexanecarboxamide] | 500 to 1000 nM |
| N#Cc1cc(F)c(Nc2nc3cnc(N[C@H]4CCCC[C@H](O)C4)nc3n2[C@H]2CC[C@@H](C(N)=O)CC2)c(Cl)c1 [Example 448, (1R,4s)-4-(8-(2-chloro-4-cyano-6-fluorophenylamino)-2-((1S,3S)-3-hydroxycycloheptylamino)-9H-purin-9-yl)cyclohexanecarboxamide] | > 1000 nM |
| C[C@]1(C(N)=O)CC[C@H](n2c(Nc3c(F)cc(Cl)cc3F)nc3cnc(NC4CCCC4)nc32)CC1 [Example 489, (1r,4r)-4-(8-(4-chloro-2,6-difluorophenylamino)-2-(cyclopentylamino)-9H-purin-9-yl)-1-methylcyclohexanecarboxamide] | > 1000 nM |
| C[C@]1(C(N)=O)CC[C@@H](n2c(Nc3c(F)cc(C#N)cc3Cl)nc3cnc(NC4CC(F)(F)C4)nc32)CC1 [Example 583, (1s,4s)-4-(8-(2-chloro-4-cyano-6-fluorophenylamino)-2-(3,3-difluorocyclobutylamino)-9H-purin-9-yl)-1-methylcyclohexanecarboxamide] | < 250 nM |
| C[C@]1(C(N)=O)CC[C@@H](n2c(Nc3c(Cl)cc(Cl)cc3Cl)nc3cnc(NC4CCCC4)nc32)CC1 [Example 574, (1s,4s)-4-(2-(cyclopentylamino)-8-(2,4,6-trichlorophenylamino)-9H-purin-9-yl)-1-methylcyclohexanecarboxamide] | 250 to 500 nM |
| C[C@]1(C(N)=O)CC[C@H](n2c(Nc3c(F)cc(F)cc3Cl)nc3cnc(NC4CCC(F)(F)CC4)nc32)CC1 [Example 477, (1r,4r)-4-(8-(2-chloro-4,6-difluorophenylamino)-2-(4,4-difluorocyclohexylamino)-9H-purin-9-yl)-1-methylcyclohexanecarboxamide] | > 1000 nM |

same assay, conditions: Homo sapiens; Lox-IMVI anti-proliferative assay, cell-based; read-out: Activity (IC50 activity level)

| Compound | IC50 |
| --- | --- |
| CC(=O)N1CCC[C@@H](Nc2ncc3nc(Nc4c(Cl)cccc4Cl)n([C@H]4CC[C@@H](C(N)=O)CC4)c3n2)C1 [Example 800, (1S,4s)-4-(2-((R)-1-acetylpiperidin-3-ylamino)-8-(2,6-dichlorophenylamino)-9H-purin-9-yl)cyclohexanecarboxamide] | > 1000 nM |

same assay, conditions: Homo sapiens; Lox-IMVI melanoma cell line, anti-proliferative assay; read-out: Activity (IC50 activity level)

| Compound | IC50 |
| --- | --- |
| NC(=O)[C@H]1CC[C@@H](n2c(Nc3c(F)cc(Cl)cc3Cl)nc3cnc(NC[C@@H]4CCCC[C@@H]4O)nc32)CC1 [Example 655, (1R,4s)-4-(8-(2,4-dichloro-6-fluorophenylamino)-2-(((1S,2S)-2-hydroxycyclohexyl)methylamino)-9H-purin-9-yl)cyclohexanecarboxamide] | > 1000 nM |
| CS(=O)(=O)N1CCC[C@@H](Nc2ncc3nc(Nc4c(F)cc(Cl)cc4F)n([C@H]4CC[C@@H](C(N)=O)CC4)c3n2)C1 [Example 703, (1S,4s)-4-(8-(4-chloro-2,6-difluorophenylamino)-2-((R)-1-(methylsulfonyl)piperidin-3-ylamino)-9H-purin-9-yl)cyclohexanecarboxamide] | > 1000 nM |
| CC(=O)N1CCC[C@@H](Nc2ncc3nc(Nc4c(Cl)cc(C(F)(F)F)cc4Cl)n([C@H]4CC[C@@H](C(N)=O)CC4)c3n2)C1 [Example 798, (1S,4s)-4-(2-((R)-1-acetylpiperidin-3-ylamino)-8-(2,6-dichloro-4-(trifluoromethyl)phenylamino)-9H-purin-9-yl)cyclohexanecarboxamide] | > 1000 nM |
| C[C@]1(C(N)=O)CC[C@@H](n2c(Nc3c(F)cc(Cl)cc3Cl)nc3cnc(N[C@H]4CC[C@H](O)C4)nc32)CC1 [Example 646, (1R,4s)-4-(8-(2,4-dichloro-6-fluorophenylamino)-2-((1S,3S)-3-hydroxycyclopentylamino)-9H-purin-9-yl)-1-methylcyclohexanecarboxamide] | 250 to 500 nM |
| NC(=O)[C@H]1CC[C@@H](n2c(Nc3c(F)cc(Cl)cc3Cl)nc3cnc(N[C@H]4CCOC[C@H]4F)nc32)CC1 [Example 714, (1R,4s)-4-(8-(2,4-dichloro-6-fluorophenylamino)-2-((3S,4S)-3-fluorotetrahydro-2H-pyran-4-ylamino)-9H-purin-9-yl)cyclohexanecarboxamide] | < 250 nM |

From patent US11590139B2, “Substituted aminopurine compounds, compositions thereof, and methods of treatment therewith” (Signal Pharmaceuticals, LLC, priority 2014, dated 2023)
